Consider seven compounds from ChEMBL document CHEMBL3407451, “Novel approach to bis(indolyl)methanes: de novo synthesis of 1-hydroxyiminomethyl derivatives with anti-cancer properties” (Eur J Med Chem, 2015).

The test system of one experiment is MDA-MB-468. The experiment in a line: Cytotoxicity against human MDA-MB-468 cells assessed as reduction in cell viability after 72 hrs by MTT colorimetric assay. The experiment is classed as functional, cell-based. The conditions noted are these: MDA-MB-468, 72 h.
Experiment [1] concerns EL4. The experiment in a line: Cytotoxicity against mouse EL4 cells assessed as reduction in cell viability after 72 hrs by MTT colorimetric assay. The experiment is classed as functional, cell-based. The conditions noted are these: EL4, 72 h.
Experiment [2] concerns EL4. The experiment in a line: Selectivity index, ratio of IC50 for mouse EL4 cells to IC50 for mouse N9 cells. The experiment is classed as functional.
In experiment [3] the test system is N9. In words: Selectivity index, ratio of IC50 for human U937 cells to IC50 for mouse N9 cells. The experiment is classed as functional.
In experiment [4] the test system is HepG2. The experiment in a line: Selectivity index, ratio of IC50 for human HepG2 cells to IC50 for mouse S17 cells. The format is functional.
Experiment [5] can be described thus: Cytotoxicity against human U937 cells assessed as reduction in cell viability after 72 hrs by MTT colorimetric assay. The format is functional, cell-based. The conditions noted are these: U-937, 72 h.
Experiment [6] has as its system HepG2. In words: Cytotoxicity against human HepG2 cells assessed as reduction in cell viability after 72 hrs by MTT colorimetric assay. The conditions noted are these: HepG2, 72 h. The format is functional, cell-based.
Experiment [7] concerns N9. The experiment in a line: Selectivity index, ratio of IC50 for human THP1 cells to IC50 for mouse N9 cells. The experiment is classed as functional.
The subject of experiment [8] is THP-1. In words: Selectivity index, ratio of IC50 for human THP1 cells to IC50 for mouse S17 cells. The format is functional.
A further experiment has as its system RAW264.7. In words: Cytotoxicity against mouse RAW264.7 cells assessed as reduction in cell viability after 72 hrs by MTT colorimetric assay. The format is functional, cell-based. Particulars: RAW264.7, 72 h.
Experiment [9] deals with N9. In words: Selectivity index, ratio of IC50 for human MDA-MB-468 cells to IC50 for mouse N9 cells. The format is functional.
The subject of experiment [10] is THP-1. The experiment in a line: Cytotoxicity against human THP1 cells assessed as reduction in cell viability after 72 hrs by MTT colorimetric assay. The format is functional, cell-based. The conditions noted are these: THP-1, 72 h.
Experiment [11] has as its system HepG2. The experiment in a line: Selectivity index, ratio of IC50 for human HepG2 cells to IC50 for mouse N9 cells. The format is functional.
In experiment [12] the test system is N9. In words: Selectivity index, ratio of IC50 for mouse RAW264.7 cells to IC50 for mouse N9 cells. The experiment is classed as functional.
The nature of experiment [13]: Selectivity index, ratio of IC50 for human MDA-MB-468 cells to IC50 for mouse S17 cells. The format is functional.
Experiment [14] is described as follows: Cytotoxicity against mouse S17 cells assessed as reduction in cell viability after 72 hrs by MTT colorimetric assay. The conditions noted are these: S17, 72 h. The experiment is classed as cell-based.

Molecules are shown by their SMILES.

Regarding `O/N=C(/c1ccc(Br)cc1)C(c1c[nH]c2ccccc12)c1c[nH]c2ccccc12`, the IC50 in the experiment on MDA-MB-468 turned out to be 22.1 µM; with EL4 [1] it was 1.65 µM; in [5], 1.64 µM; with HepG2 [6] it was 16.6 µM; in the experiment with RAW264.7 it was 23.9 µM; with THP-1 [10], 1.62 µM. The IC50 in experiment [14] was 16.3 µM. Further, the “Ratio IC50” value with EL4 [2] worked out at 13.94; with N9 [3] it was 14.02; in the experiment with HepG2 [4] it was 0.98; in the experiment with N9 [7], 14.2; in the experiment on THP-1 [8], 10.04; in the experiment with N9 [9] it was 1.04. In addition, the “Ratio IC50” value with HepG2 [11] came to 1.38; in the experiment on N9 [12] it was 0.96; in [13], 0.73.
As for `Cn1cc(C(/C(=N\O)c2ccc(Br)cc2)c2cn(C)c3ccccc23)c2ccccc21`, the half-maximal inhibitory concentration (IC50) came to 63.7 µM in the experiment on MDA-MB-468; 106 µM in the experiment with EL4 [1]; 97 µM in experiment [5]; 35.7 µM with HepG2 [6]; 42.2 µM with RAW264.7; 124 µM in the experiment on THP-1 [10]. Also, the IC50 in experiment [14] was 51.4 µM. Also, the “Ratio IC50” value amounted to 0.19 in the experiment on EL4 [2]; 0.2 in the experiment with N9 [3]; 1.44 with HepG2 [4]; 0.16 with N9 [7]; 0.41 in the experiment on THP-1 [8]; 0.31 in the experiment on N9 [9]. The “Ratio IC50” value in the experiment on HepG2 [11] stood at 0.56; in the experiment with N9 [12] it was 0.47; in experiment [13], 0.81.
As to `O/N=C(/c1ccccc1)C(c1c[nH]c2ccccc12)c1c[nH]c2ccccc12`, the IC50 in the experiment on MDA-MB-468 is 10.7 µM; in the experiment with EL4 [1], 11.9 µM; in [5] it was 34.1 µM; with HepG2 [6], 28 µM; in the experiment with RAW264.7 it was 12.2 µM; with THP-1 [10], 18.1 µM. Besides, in [14], the IC50 is 26.3 µM. The “Ratio IC50” value in the experiment with EL4 [2] worked out at 2.45; in the experiment with N9 [3], 0.86; in the experiment on HepG2 [4], 0.94; in the experiment on N9 [7] it was 1.61; in the experiment on N9 [9], 2.72; in the experiment on HepG2 [11] it was 1.05. The results for the “Ratio IC50” value (with N9 [12]; in [13]) were 2.4 and 2.45, respectively.
As to `O/N=C(/c1ccc(F)cc1)C(c1c[nH]c2ccccc12)c1c[nH]c2ccccc12`, the half-inhibitory concentration (IC50) with EL4 [1] worked out at 16.9 µM; in [5], 28 µM; in the experiment on THP-1 [10], 23 µM; in [14], 24.9 µM. In addition, in the experiment on THP-1 [8], the “Ratio IC50” value is 0.89.
On the same counts, the results for `C/C(=N\O)C(c1c[nH]c2ccccc12)c1c[nH]c2ccccc12` are 23.9 µM, 42.5 µM, 30.7 µM, 26.1 µM and 0.62.
On the same counts, the results for `C/C(=N/O)C(c1c[nH]c2ccccc12)c1c[nH]c2ccccc12` are 39 µM, 59.3 µM, 57.6 µM, 35.8 µM and 0.6.
As to `COc1cc([C@@H]2c3cc4c(cc3[C@@H](O[C@@H]3O[C@@H]5CO[C@@H](C)O[C@H]5[C@H](O)[C@H]3O)[C@H]3COC(=O)[C@H]23)OCO4)cc(OC)c1O` [ETOPOSIDE], the IC50 in the experiment on MDA-MB-468 was 6.69 µM; with EL4 [1], 4.9 µM; in experiment [5] it was 1.1 µM; in the experiment with HepG2 [6], 1.4 µM; in the experiment on RAW264.7, 0.82 µM; in the experiment with THP-1 [10], 1.82 µM. Further, the IC50 in experiment [14] is 10.4 µM. The “Ratio IC50” value in the experiment on EL4 [2] is reported as 0.8; in the experiment with HepG2 [4], 8.97; in the experiment on THP-1 [8] it was 8.55; with N9 [9], 0.88; with HepG2 [11], 1.71.
